Patent US8175808B2, “Method for determining disease treatment duration” (Sloan Kettering Institute for Cancer Research, priority 2005, dated 2012)

Tests used:
[1] = test system: MX-1 or MAXF401 human breast cancer xenografts; assay: Tumor volume growth in mice bearing human breast cancer xenografts; drug effect DE(t) and time point of maximum impact (TPMI) from Gompertzian/polynomial fits; type: in vivo; conditions: for maximum drug effect, DE(TPMI): dimensionless; for elapsed time to zero crossing of derivative DE'(t) (TPMI) / elapsed time after start of treatment to relative maximum in DE(t) (TPMI): pooled data, 14 days on/7 off; for elapsed time after start of treatment to relative maximum in DE(t) (TPMI): first cycle
Text: The untreated series of measurements reveal the progression of the disease without treatment, and therefore it is not obtained from a patient to be treated using the method. Typically the untreated series of measurements describes the progression of the disease in one or more historical cases, or test subjects, or both. For example, the untreated series of measurements describes the progression of tumor volume with time in breast cancer victims who are not treated for some number of weeks. In the illustrated embodiment, described further in later sections, the untreated series of measurements describe tumor volume in mice bearing MX-1 or MAXF401 human breast cancer xenografts approximately every two days for about seven weeks (50 days). FIG. 2A is a graph 210 that illustrates, as solid-filled circles 216, pooled measurements of tumor volume growth for untreated breast cancer in xenograft models (MX-1). Untreated tumor growth is sometimes called “naïve growth.” The horizontal axis 212 indicates the passage of time in days since an initial time. The vertical axis 214 indicates the tumor volume in cubic millimeters (mm^3). The solid trace 218 represents a model fit to the data as described in more detail below.
In the illustrated embodiment, described further in later sections, two treated series of measurements describe tumor volume in mice bearing MX-1 or MAXF401 human breast cancer xenografts approximately every two days for about seven weeks (50 days) during treatment. The treatment involves administering the drug XELODA according to the standard protocol: a 14-day duration of administering the drug at a particular dose, followed by a 7 day hiatus in administering the drug. One treatment uses a lower dose of 1.5 millimoles (mmol) per kilogram (kg) of victim weight per day (mmol/kg/day). A second treatment uses a higher dose of 2.25 mmol/kg/day. Each of the two treated series describes the progression of tumor volume with time in the treated victim of the disease, and includes an initial measurement of tumor volume at or near when the treatment was started, for example just before the first injection of the drug. The initial measurement is used in a later step to relate a treated series to the untreated series, which typically occur in different subjects.
In step 130, a temporal series of effectiveness values is determined. Any method may be used to determine an effectiveness value. In the illustrated embodiment, each effectiveness value indicates the ratio between the rate of change of the physical property for the treated disease and the rate of change for the untreated disease at a corresponding time. For purposes of illustration, it is assumed that the temporal progression of the physical property for the untreated disease is represented by the function Pu(t) and that its rate of change is given by its first time derivative Pu′(t). Similarly, it is assumed that the temporal progression of the physical property for the treated disease is represented by the function Pt(t) and that its rate of change is given by its first time derivative Pt′(t). It is further assumed that the temporal progression of the ratio is represented by the function R(t) and is given by Equation 1 R(t)=Pt′(t)/Pu′(t) (1). In other embodiments, a different definition of ratio is used. For example, in some embodiments the ratio given by the reciprocal of R(t) is used. In the illustrated embodiments, R is the ratio of two physical properties with the same units and is therefore dimensionless.
An effectiveness parameter is often defined that indicates the ratio R(t) but offers a more useful description of the effect of a treatment than the ratio itself. […]

[2] = test system: MX-1 or MAXF401 human breast cancer xenografts; conditions: 6 weeks, CDS (days on/off) 14/7, 5/2, 2/5, 7/7, 4 dose levels plus control; Yanagisawa, Proc. AACR 2004; cited from earlier work

## CCCCCOC(=O)Nc1nc(=O)n([C@@H]2O[C@H](C)[C@@H](O)[C@H]2O)cc1F [capecitabine]
[1]; 7-day duration/7-day hiatus, high dose 2.5 mmol/kg/day
  maximum drug effect, DE(TPMI): about 0.8
[1]; follow-up experiment, higher daily dose with 7 on/7 off
  maximal DE, 7 on/7 off CDS compared with 14 on/7 off CDS: increased maximal DE
[1]; higher dose 2.25 mmol/kg/day
  elapsed time to zero crossing of derivative DE'(t) (TPMI): 8.3 days
  elapsed time after start of treatment to relative maximum in DE(t) (TPMI): 8 days
[1]; lower dose 1.5 mmol/kg/day
  elapsed time to zero crossing of derivative DE'(t) (TPMI): 10.1 days
  elapsed time after start of treatment to relative maximum in DE(t) (TPMI): 10 days
[1]; pooled mice, dose levels analyzed (1.5 and 2.25 mmol/kg/day), 14/7 CDS
  time point of maximum impact (TPMI), averaged, days into therapy: 8.3 to 10.1 days
[1]; standard protocol, 14-day duration/7-day hiatus
  maximum drug effect, DE(TPMI): about 0.65
[2]
  effectiveness of CDS regimens: all were effective at an appropriate dose
